Reference: US8563729B2, “Thienopyridone derivatives as AMP-activated protein kinase (AMPK) activators” (Merck Patent GmbH, priority 2008, dated 2013)

Experiments:
H-2 Kb cells = test: Glucose uptake in H-2 Kb cells (in vitro cellular test); assay type: cell-based, mouse; settings: H-2 Kb cells differentiated in muscle, 4 hours incubation, 2-deoxy-D-[1,2 3H] glucose uptake 10 min
Experimental: Glucose Uptake in H-2 Kb Cells (In Vitro Cellular Test)
The following cellular test allows the determination of the effect of AMPK activators such as compounds of formula (I) onto glucose uptake in a muscle cellular model.
H-1-2 Kb cells derived from heterozygous H-2 Kb tsA58 transgenic mouse were grown in 24-well in plates coated with matrigel and were cultured at 33° C. for 4 days under permissive conditions, as described previously by Fryer et al. (Diabetes 49 (12): 1978, 2000).
For differentiation in muscle, cells were switched to non-permissive culture conditions (37° C. in the absence of interferon-γ). After 3 days, cells were incubated for 4 hours in DMEM 1 g/l glucose culture medium containing different concentrations of the tested molecules. Then glucose uptake was measured by incubating the cells for 10 min with radiolabelled 2-deoxy-D-[1,2 ^3H] glucose. Glucose uptake was terminated by rapidly washing the plates 2 times with ice-cold NaCl 0.9%. The cells were then solubilized in 0.1N NaOH for 30 min. Radioactivity was determined by liquid scintillation counting.
(§1) N°: Number of the molecule
Activity (table III): Concentration of compound (I) for a glucose uptake equal or higher to glucose uptake induced by insulin (170 nM)
^++ or **concentration of compound (I) ≦10 micro Molar
^+ or *concentration of compound (I) >10 micro Molar

[1] = target: T1, AMPK protein (recombinant α1β1γ2) (Homo sapiens, UniProt Q13131+Q9Y478); test: AMPK enzymatic activity (Delfia, AMARA peptide substrate); assay type: biochemical; settings: compound 30 μM vs AMP 30 μM; 125 μM ATP; ratio 90% or higher = direct activator
T1 construct: made in house; host or cells: E. coli
Experimental: The following biological test allows the determination of the efficacy of such compounds of formula (I) onto AMPK protein (recombinant α1β1γ2).
Human recombinant AMPK enzyme was expressed in E. Coli and was reactivated in vitro by LKB1 prior to enzyme activity determination.
AMPK enzyme activities were assayed by using A Delfia technology. AMPK enzyme activities were carried out in microtiter plates (50 mM Hepes buffer, pH 7.4 with 125 μM ATP respectively) in the presence of a synthetic peptide substrate (AMARAASAAALARRR, the “AMARA” peptide) and activators in serial dilutions. Reactions were initiated by the addition of AMPK (50-100 ng). Following mixing, the plates were incubated for 30 min at room temperature. Enzyme activity was assayed by using an anti-phosphoserine antibody to measure the quantity of phosphate incorporated into the AMARAA.
as §1
Activity: Ratio between the % of control (basal activity) of compound of formula (I) at 30 μM and the % of control (basal activity) of AMP (natural substrate) at 30 μM.
Compounds of formula (I) in the table II are considered as direct activator of AMPK if the ratio is 90% or higher.

T1 sequence (Q13131 whole entry): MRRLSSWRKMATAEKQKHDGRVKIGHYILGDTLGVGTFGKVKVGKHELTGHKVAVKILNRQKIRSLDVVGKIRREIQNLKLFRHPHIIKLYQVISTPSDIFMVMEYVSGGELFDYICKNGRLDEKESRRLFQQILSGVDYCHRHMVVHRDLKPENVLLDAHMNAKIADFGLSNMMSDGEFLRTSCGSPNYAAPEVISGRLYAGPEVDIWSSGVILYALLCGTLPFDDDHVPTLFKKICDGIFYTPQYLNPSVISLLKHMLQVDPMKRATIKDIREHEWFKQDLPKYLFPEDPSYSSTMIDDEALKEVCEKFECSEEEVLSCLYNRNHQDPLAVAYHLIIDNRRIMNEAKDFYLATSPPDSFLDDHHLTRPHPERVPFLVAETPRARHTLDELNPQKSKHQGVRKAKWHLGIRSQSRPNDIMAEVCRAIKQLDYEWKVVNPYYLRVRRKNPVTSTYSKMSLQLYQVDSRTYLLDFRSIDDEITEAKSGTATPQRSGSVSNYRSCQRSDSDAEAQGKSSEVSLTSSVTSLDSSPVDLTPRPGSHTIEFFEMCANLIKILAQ
T1 sequence (Q9Y478 whole entry): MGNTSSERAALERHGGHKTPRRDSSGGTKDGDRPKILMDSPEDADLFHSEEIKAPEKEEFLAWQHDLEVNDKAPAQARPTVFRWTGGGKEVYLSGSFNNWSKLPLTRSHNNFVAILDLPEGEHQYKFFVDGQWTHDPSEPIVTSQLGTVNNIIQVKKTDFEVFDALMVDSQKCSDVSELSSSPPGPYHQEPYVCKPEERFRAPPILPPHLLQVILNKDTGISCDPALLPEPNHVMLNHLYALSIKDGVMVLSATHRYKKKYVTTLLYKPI
T1 sequence (Q9UGJ0 whole entry partner): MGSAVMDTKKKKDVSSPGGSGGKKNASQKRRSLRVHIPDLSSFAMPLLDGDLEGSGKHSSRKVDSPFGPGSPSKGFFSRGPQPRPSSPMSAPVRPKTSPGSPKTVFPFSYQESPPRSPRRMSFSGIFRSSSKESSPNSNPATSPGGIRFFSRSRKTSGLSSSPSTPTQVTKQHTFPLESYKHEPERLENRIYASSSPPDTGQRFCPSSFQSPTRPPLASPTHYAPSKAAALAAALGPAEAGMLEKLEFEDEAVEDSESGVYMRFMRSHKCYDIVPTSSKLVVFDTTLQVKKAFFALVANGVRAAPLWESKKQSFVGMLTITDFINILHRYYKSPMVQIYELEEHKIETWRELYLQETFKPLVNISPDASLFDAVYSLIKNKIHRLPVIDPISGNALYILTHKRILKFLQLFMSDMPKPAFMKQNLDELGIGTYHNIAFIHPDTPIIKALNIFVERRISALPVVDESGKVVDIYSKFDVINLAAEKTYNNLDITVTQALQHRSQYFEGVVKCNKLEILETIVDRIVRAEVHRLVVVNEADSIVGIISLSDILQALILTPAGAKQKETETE

activity: Ratio between the % of control (basal activity) of compound of formula (I) at 30 μM and the % of control (basal activity) of AMP at 30 μM [1] [%]	SMILES	Activity (table III): Concentration of compound (I) for a glucose uptake equal or higher to glucose uptake induced by insulin (170 nM) (H-2 Kb cells)
236	Cc1ccc(-c2c(Cl)sc3[nH]c(=O)c(-c4ccccc4)c(O)c23)c(O)c1 [Compound 104]	* (^+ or *concentration of compound (I) >10 micro Molar)
305	O=c1[nH]c2sc(Cl)c(-c3cc(F)ccc3O)c2c(O)c1-c1ccccc1 [Compound 108]	* (^+ or *concentration of compound (I) >10 micro Molar)
200	O=c1[nH]c2sc(Cl)c(-c3ccc(O)c(F)c3)c2c(O)c1-c1ccccc1 [Compound 109]	** (^++ or **concentration of compound (I) ≦10 micro Molar)
136	O=c1[nH]c2sc(Cl)c(-c3ccc(F)cc3O)c2c(O)c1-c1ccccc1 [Compound 111]	* (^+ or *concentration of compound (I) >10 micro Molar)
118	COc1ccc(-c2c(Cl)sc3[nH]c(=O)c(-c4ccccc4)c(O)c23)c(F)c1 [Compound 115]	** (^++ or **concentration of compound (I) ≦10 micro Molar)
143	O=c1[nH]c2sc(Cl)c(-c3ccccc3O)c2c(O)c1-c1ccccc1 [Compound 121]	* (^+ or *concentration of compound (I) >10 micro Molar)
101	Cc1cccc(-c2c(Cl)sc3[nH]c(=O)c(-c4ccccc4)c(O)c23)c1 [Compound 125]	** (^++ or **concentration of compound (I) ≦10 micro Molar)
488	O=c1[nH]c2sc(Cl)c(-c3ccc4ccccc4c3O)c2c(O)c1-c1ccccc1 [Compound 136]	** (^++ or **concentration of compound (I) ≦10 micro Molar)
114	O=c1[nH]c2sc(Cl)c(-c3ccc(O)cc3)c2c(O)c1-c1ccccc1 [Compound 138]	** (^++ or **concentration of compound (I) ≦10 micro Molar)
121	O=c1[nH]c2sc(Cl)c(-c3ccccc3)c2c(O)c1-c1cccc(O)c1 [Compound 148]	** (^++ or **concentration of compound (I) ≦10 micro Molar)
95	O=c1[nH]c2sc(Cl)c(-c3ccccc3)c2c(O)c1-c1ccc(O)cc1 [Compound 156]	** (^++ or **concentration of compound (I) ≦10 micro Molar)
354	Cc1ccccc1-c1c(O)c2c(-c3ccccc3)c(Cl)sc2[nH]c1=O [Compound 164]	+ (^+ or *concentration of compound (I) >10 micro Molar)

Second part, the compound before the results:

SMILES	activity: Ratio between the % of control (basal activity) of compound of formula (I) at 30 μM and the % of control (basal activity) of AMP at 30 μM [1] [%]	Activity (table III): Concentration of compound (I) for a glucose uptake equal or higher to glucose uptake induced by insulin (170 nM) (H-2 Kb cells)
O=c1[nH]c2sc(Cl)c(-c3ccc(F)c(F)c3)c2c(O)c1-c1ccccc1 [Compound 100]	103	** (^++ or **concentration of compound (I) ≦10 micro Molar)
O=c1[nH]c2sc(Cl)c(-c3ccccc3F)c2c(O)c1-c1ccccc1 [Compound 119]	101	* (^+ or *concentration of compound (I) >10 micro Molar)
O=c1[nH]c2sc(Cl)c(-c3cccc(F)c3)c2c(O)c1-c1ccccc1 [Compound 126]	98	* (^+ or *concentration of compound (I) >10 micro Molar)
CCOc1cccc(-c2c(Cl)sc3[nH]c(=O)c(-c4ccccc4)c(O)c23)c1 [Compound 127]	122	* (^+ or *concentration of compound (I) >10 micro Molar)
COc1cccc(-c2c(Cl)sc3[nH]c(=O)c(-c4ccccc4)c(O)c23)c1 [Compound 128]	181	* (^+ or *concentration of compound (I) >10 micro Molar)
COc1ccc(-c2c(Cl)sc3[nH]c(=O)c(-c4cccc(C#N)c4)c(O)c23)cc1 [Compound 129]	102	** (^++ or **concentration of compound (I) ≦10 micro Molar)
N#Cc1cccc(-c2c(O)c3c(-c4ccc(F)cc4)c(Cl)sc3[nH]c2=O)c1 [Compound 131]	331	* (^+ or *concentration of compound (I) >10 micro Molar)
O=c1[nH]c2sc(Cl)c(-c3ccc4ccccc4c3)c2c(O)c1-c1ccccc1 [Compound 137]	129	* (^+ or *concentration of compound (I) >10 micro Molar)
COc1ccc(-c2c(Cl)sc3[nH]c(=O)c(-c4ccccc4)c(O)c23)cc1 [Compound 139]	114	** (^++ or **concentration of compound (I) ≦10 micro Molar)
O=c1[nH]c2sc(Cl)c(-c3ccc(F)cc3)c2c(O)c1-c1ccccc1 [Compound 140]	123	** (^++ or **concentration of compound (I) ≦10 micro Molar)
O=c1[nH]c2sc(Cl)c(-c3ccccc3)c2c(O)c1-c1cccc(C(F)(F)F)c1 [Compound 143]	99	* (^+ or *concentration of compound (I) >10 micro Molar)
COc1cccc(-c2c(O)c3c(-c4ccccc4)c(Cl)sc3[nH]c2=O)c1 [Compound 149]	120	** (^++ or **concentration of compound (I) ≦10 micro Molar)
COc1ccc(-c2c(O)c3c(-c4ccccc4)c(Cl)sc3[nH]c2=O)cc1 [Compound 157]	147	** (^++ or **concentration of compound (I) ≦10 micro Molar)
O=c1[nH]c2sc(Br)c(-c3ccccc3)c2c(O)c1-c1ccccc1 [Compound 161]	113	** (^++ or **concentration of compound (I) ≦10 micro Molar)
O=c1[nH]c2sc(Cl)c(-c3ccccc3)c2c(O)c1-c1ccccc1 [Compound 162]	107	** (^++ or **concentration of compound (I) ≦10 micro Molar)
